Data published in ChEMBL document CHEMBL4673219, “Novel 5,6-disubstituted pyrrolo[2,3-d]pyrimidine derivatives as broad spectrum antiproliferative agents: Synthesis, cell based assays, kinase profile and molecular docking study” (Bioorg Med Chem, 2018).
Several values for one entry are separate records, joined by “and”; a condition that tells them apart may be missing. Identical values can stand only once.

Legend:
MDA-MB-231 [1] = assay: Growth inhibition of human MDA-MB-231/ATCC cells assessed as growth percentage at 10 uM incubated for 48 hrs by sulforhodamine B assay relative to control; format: functional; details: read-out: Activity
MCF7 [2] = assay: Growth inhibition of human MCF7 cells assessed as growth percentage at 10 uM incubated for 48 hrs by sulforhodamine B assay relative to control; format: functional; details: read-out: Activity
SK-OV-3 [3] = assay: Growth inhibition of human SK-OV-3 cells assessed as growth percentage at 10 uM incubated for 48 hrs by sulforhodamine B assay relative to control; format: functional; details: read-out: Activity
SK-MEL-28 = assay: Growth inhibition of human SK-MEL-28 cells assessed as growth percentage at 10 uM incubated for 48 hrs by sulforhodamine B assay relative to control; format: functional; details: read-out: Activity
SNB-75 = assay: Growth inhibition of human SNB-75 cells assessed as growth percentage at 10 uM incubated for 48 hrs by sulforhodamine B assay relative to control; format: functional; details: read-out: Activity
SF-268 [4] = assay: Growth inhibition of human SF-268 cells assessed as growth percentage at 10 uM incubated for 48 hrs by sulforhodamine B assay relative to control; format: functional; details: read-out: Activity
HT-29 = assay: Growth inhibition of human HT-29 cells assessed as growth percentage at 10 uM incubated for 48 hrs by sulforhodamine B assay relative to control; format: functional; details: read-out: Activity
NCI-H522 = assay: Growth inhibition of human NCI-H522 cells assessed as growth percentage at 10 uM incubated for 48 hrs by sulforhodamine B assay relative to control; format: functional; details: read-out: Activity
NCI-H460 = assay: Growth inhibition of human NCI-H460 cells assessed as growth percentage at 10 uM incubated for 48 hrs by sulforhodamine B assay relative to control; format: functional; details: read-out: Activity
HL-60(TB) = assay: Growth inhibition of human HL-60(TB) cells assessed as growth percentage at 10 uM incubated for 48 hrs by sulforhodamine B assay relative to control; format: functional; details: read-out: Activity
MDA-MB-231 [5] = assay: Growth inhibition of human MDA-MB-231/ATCC cells incubated for 48 hrs by sulforhodamine B assay; format: functional; details: for TGI: MDA-MB-231
DU-145 = assay: Growth inhibition of human DU-145 cells incubated for 48 hrs by sulforhodamine B assay; format: functional; details: for GI50 / TGI: DU-145
PC-3 = assay: Growth inhibition of human PC-3 cells incubated for 48 hrs by sulforhodamine B assay; format: functional; details: for CC50: read-out: LC50 (the source's name)
SN12C [6] = assay: Growth inhibition of human SN12C cells incubated for 48 hrs by sulforhodamine B assay; format: functional
SK-OV-3 [7] = assay: Growth inhibition of human SK-OV-3 cells incubated for 48 hrs by sulforhodamine B assay; format: functional; details: for GI50: SK-OV-3
KM12 = assay: Growth inhibition of human KM12 cells incubated for 48 hrs by sulforhodamine B assay; format: functional; details: for TGI: KM12
[8] = Cytotoxicity against human HFF-1 cells assessed as cell growth inhibition by MTT assay; format: cell-based
MCF7 [9] = assay: Antiproliferative activity against human MCF7 cells assessed as cell growth inhibition at 10 uM measured after 72 hrs by MTT assay relative to control; format: functional; details: read-out: GI
Hs-578T = assay: Growth inhibition of human Hs-578T cells assessed as growth percentage at 100 uM incubated for 48 hrs by sulforhodamine B assay relative to control; format: functional; details: read-out: Activity
IGROV-1 = assay: Growth inhibition of human IGROV-1 assessed as growth percent at 100 uM incubated for 48 hrs by sulforhodamine B assay relative to control; format: functional; details: read-out: Activity
SF-268 [10] = assay: Growth inhibition of human SF-268 cells assessed as growth percentage at 100 uM incubated for 48 hrs by sulforhodamine B assay relative to control; format: functional; details: read-out: Activity
SR = assay: Growth inhibition of human SR cells assessed as growth percentage at 100 uM incubated for 48 hrs by sulforhodamine B assay relative to control; format: functional; details: read-out: Activity
A498 = assay: Growth inhibition of human A498 cells assessed as growth percentage at 1 uM incubated for 48 hrs by sulforhodamine B assay relative to control; format: functional; details: read-out: Activity
SK-MEL-5 = assay: Growth inhibition of human SK-MEL-5 cells assessed as growth percentage at 1 uM incubated for 48 hrs by sulforhodamine B assay relative to control; format: functional; details: read-out: Activity
SW-620 = assay: Growth inhibition of human SW-620 cells assessed as growth percentage at 1 uM incubated for 48 hrs by sulforhodamine B assay relative to control; format: functional; details: read-out: Activity
HOP-92 = assay: Growth inhibition of human HOP-92 cells assessed as growth percentage at 1 uM incubated for 48 hrs by sulforhodamine B assay relative to control; format: functional; details: read-out: Activity
BT-549 = assay: Growth inhibition of human BT-549 cells assessed as growth percentage at 0.1 uM incubated for 48 hrs by sulforhodamine B assay relative to control; format: functional; details: read-out: Activity
CCRF-CEM = assay: Growth inhibition of human CCRF-CEM cells assessed as growth percentage at 1 uM incubated for 48 hrs by sulforhodamine B assay relative to control; format: functional; details: read-out: Activity
MDA-MB-231 [11] = assay: Growth inhibition of human MDA-MB-231/ATCC cells assessed as growth percentage at 0.1 uM incubated for 48 hrs by sulforhodamine B assay relative to control; format: functional; details: read-out: Activity
RXF 393 = assay: Growth inhibition of human RXF 393 cells assessed as growth percentage at 0.1 uM incubated for 48 hrs by sulforhodamine B assay relative to control; format: functional; details: read-out: Activity
SK-OV-3 [12] = assay: Growth inhibition of human SK-OV-3 cells assessed as growth percentage at 0.1 uM incubated for 48 hrs by sulforhodamine B assay relative to control; format: functional; details: read-out: Activity
OVCAR-4 = assay: Growth inhibition of human OVCAR-4 cells assessed as growth percentage at 0.1 uM incubated for 48 hrs by sulforhodamine B assay relative to control; format: functional; details: read-out: Activity
UACC-62 = assay: Growth inhibition of human UACC-62 cells assessed as growth percentage at 0.1 uM incubated for 48 hrs by sulforhodamine B assay relative to control; format: functional; details: read-out: Activity
SF-268 [13] = assay: Growth inhibition of human SF-268 cells assessed as growth percentage at 0.1 uM incubated for 48 hrs by sulforhodamine B assay relative to control; format: functional; details: read-out: Activity
COLO 205 [14] = assay: Growth inhibition of human COLO 205 cells assessed as growth percentage at 0.1 uM incubated for 48 hrs by sulforhodamine B assay relative to control; format: functional; details: read-out: Activity
MDA-MB-231 [15] = assay: Growth inhibition of human MDA-MB-231/ATCC cells assessed as growth percentage at 0.01 uM incubated for 48 hrs by sulforhodamine B assay relative to control; format: functional; details: read-out: Activity
SN12C [16] = assay: Growth inhibition of human SN12C cells assessed as growth percentage at 0.01 uM incubated for 48 hrs by sulforhodamine B assay relative to control; format: functional; details: read-out: Activity
OVCAR-8 = assay: Growth inhibition of human OVCAR-8 cells assessed as growth percentage at 0.01 uM incubated for 48 hrs by sulforhodamine B assay relative to control; format: functional; details: read-out: Activity
COLO 205 [17] = assay: Growth inhibition of human COLO 205 cells assessed as growth percentage at 0.01 uM incubated for 48 hrs by sulforhodamine B assay relative to control; format: functional; details: read-out: Activity

CCCCCCCC(=O)Nc1nc2[nH]c(CN3CCN(Cc4cccc(F)c4)CC3)c(CN3CCN(Cc4cccc(F)c4)CC3)c2c(=O)[nH]1
growth at 10 µM (MDA-MB-231 [1]): -83%
growth at 10 µM (MCF7 [2]): -72.9%
growth at 10 µM (SK-OV-3 [3]): -61%
growth at 10 µM (SK-MEL-28): -97%
growth at 10 µM (SNB-75): -99.2%
growth at 10 µM (SF-268 [4]): -92.2%
growth at 10 µM (HT-29): -69.7%
growth at 10 µM (NCI-H522): -71.5%
growth at 10 µM (NCI-H460): -82.3%
growth at 10 µM (HL-60(TB)): -60.1%
GI50 (MDA-MB-231 [5]; 48 h): 590 nM
TGI (MDA-MB-231 [5]; Homo sapiens): 1960 nM
GI50 (MDA-MB-231 [5]; Homo sapiens, MDA-MB-231, 48 h): 587 nM
CC50 (MDA-MB-231 [5]; Homo sapiens, MDA-MB-231, read-out: LC50 (the source's name)): 5380 nM
GI50 (DU-145): 1100 nM
TGI (DU-145): 2420 nM
GI50 (PC-3): 1300 nM
TGI (PC-3): 2670 nM
CC50 (PC-3): 5470 nM
GI50 (SN12C [6]): 1480 nM
LC50 (SN12C [6]): 6850 nM
TGI (SN12C [6]): 3180 nM
GI50 (SK-OV-3 [7]; Homo sapiens): 1900 nM
LC50 (SK-OV-3 [7]; Homo sapiens, SK-OV-3, 48 h): 5860 nM
TGI (SK-OV-3 [7]; Homo sapiens, SK-OV-3, 48 h): 3330 nM
GI50 (KM12; 48 h): 720 nM
TGI (KM12; Homo sapiens): 2380 nM
GI50 (KM12; Homo sapiens, KM12, 48 h): 719 nM
GI50 [8]: > 10000 nM
inhibition of growth at 10 µM (MCF7 [9]): 94.8%
growth at 100 µM (Hs-578T): -40%
growth at 100 µM (IGROV-1): -70%
growth at 100 µM (SF-268 [10]): -77%
growth at 100 µM (SR): -12%
growth at 1 µM (A498): 66%
growth at 1 µM (SK-MEL-5): 84%
growth at 1 µM (SW-620): -72%
growth at 1 µM (HOP-92): 59%
growth at 0.1 µM (BT-549): 85%
growth at 1 µM (CCRF-CEM): -17%
growth at 0.1 µM (MDA-MB-231 [11]): 108%
growth at 0.1 µM (RXF 393): 100%
growth at 0.1 µM (SK-OV-3 [12]): 94%
growth at 0.1 µM (OVCAR-4): 84%
growth at 0.1 µM (UACC-62): 100%
growth at 0.1 µM (SF-268 [13]): 95%
growth at 0.1 µM (COLO 205 [14]): 92%
growth at 0.01 µM (MDA-MB-231 [15]): 105%
growth at 0.01 µM (SN12C [16]): 97%
growth at 0.01 µM (OVCAR-8): 102%
growth at 0.01 µM (COLO 205 [17]): 92%

Nc1nc2[nH]c(CN3CCN(c4cc(Cl)cc(Cl)c4)CC3)c(CN3CCN(c4cc(Cl)cc(Cl)c4)CC3)c2c(=O)[nH]1
growth at 10 µM (MDA-MB-231 [1]): 71.9%
growth at 10 µM (MCF7 [2]): 23.4%
growth at 10 µM (SK-OV-3 [3]): 90.2%
growth at 10 µM (SK-MEL-28): 90.8%
growth at 10 µM (SNB-75): 63.7%
growth at 10 µM (SF-268 [4]): 81.2%
growth at 10 µM (HT-29): 33.4%
growth at 10 µM (NCI-H522): 83.3%
growth at 10 µM (NCI-H460): 79.4%
growth at 10 µM (HL-60(TB)): 24.4%
TGI (MDA-MB-231 [5]; Homo sapiens): 3980 nM
GI50 (MDA-MB-231 [5]; Homo sapiens, MDA-MB-231, 48 h): 2010 nM
GI50 (DU-145): 1920 nM
TGI (DU-145): 3460 nM
CC50 (DU-145; DU-145, 48 h, read-out: LC50 (the source's name)): 6240 nM
GI50 (PC-3): 1760 nM
TGI (PC-3): 3890 nM
CC50 (PC-3): 8610 nM
GI50 (SN12C [6]): 1910 nM
TGI (SN12C [6]): 3910 nM
TGI (SK-OV-3 [7]; 48 h): 17500 nM and 1750 nM
GI50 (SK-OV-3 [7]; Homo sapiens): 4620 nM
TGI (KM12; Homo sapiens): 3420 nM
GI50 (KM12; Homo sapiens, KM12, 48 h): 1830 nM
CC50 (KM12; Homo sapiens, KM12, read-out: LC50 (the source's name)): 6380 nM
GI50 [8]: > 10000 nM
inhibition of growth at 10 µM (MCF7 [9]): 82.5%
growth at 100 µM (Hs-578T): -25%
growth at 100 µM (IGROV-1): -48%
growth at 100 µM (SF-268 [10]): -59%
growth at 100 µM (SR): -30%
growth at 1 µM (A498): 75%
growth at 1 µM (SK-MEL-5): 89%
growth at 1 µM (SW-620): 88%
growth at 1 µM (HOP-92): 65%
growth at 0.1 µM (BT-549): 92%
growth at 1 µM (CCRF-CEM): 87%
growth at 0.1 µM (MDA-MB-231 [11]): 98%
growth at 0.1 µM (RXF 393): 89%
growth at 0.1 µM (SK-OV-3 [12]): 103%
growth at 0.1 µM (OVCAR-4): 95%
growth at 0.1 µM (UACC-62): 102%
growth at 0.1 µM (SF-268 [13]): 102%
growth at 0.1 µM (COLO 205 [14]): 101%
growth at 0.01 µM (MDA-MB-231 [15]): 106%
growth at 0.01 µM (SN12C [16]): 100%
growth at 0.01 µM (OVCAR-8): 100%
growth at 0.01 µM (COLO 205 [17]): 95%
